Results as given in patent US10538491B2, “4,5-substituted picolinamide and picolinonitrile metabotropic glutamate receptor 2 negative allosteric modulators” (Vanderbilt University, priority 2015, dated 2020).

Biological target: rat mGlu2 (Rattus norvegicus (Rat), UniProt P31421)
Assay: mGlu2 Ca2+ flux assay
Type: cell-based
Conditions: for IC50: Gα15 HEK293 cells stably expressing rat mGlu2, glutamate EC80, >10,000 = no plateau, >30,000 = no measurable activity; for remaining activity at 30 µM: read-out: rat mGlu2 Glu max
Method: Gα15 HEK293 cells stably expressing rat mGlu2 were plated in black-walled, clear-bottomed, poly-D-lysine coated 384-well plates in 20 μL of assay medium (DMEM containing 10% dialyzed FBS, 20 mM HEPES, and 1 mM sodium pyruvate) at a density of 12K cells/well. The cells were grown overnight at 37° C. in the presence of 5% CO2. The next day, medium was removed and the cells incubated with 20 μL of 2.3 μM Fluo-4, AM prepared as a 2.3 mM stock in DMSO and mixed in a 1:1 ratio with 10% (w/v) pluronic acid F-127 and diluted in assay buffer (Hank's balanced salt solution, 20 mM HEPES, and 2.5 mM probenecid) for 45 minutes at 37° C. Dye was removed, 20 μL of assay buffer was added, and the plate was incubated for 5 minutes at room temperature.
Ca^2+ flux was measured using the Functional Drug Screening System (FDSS7000, Hamamatsu, Japan). After establishment of a fluorescence baseline for about 3 seconds, the compounds of the present invention were added to the cells, and the response in cells was measured. 2.3 minutes later an EC20 concentration of the mGlu2 receptor agonist glutamate was added to the cells, and the response of the cells was measured for 1.9 minutes; an EC80 concentration of agonist was added and readings taken for an additional 1.7 minutes. All test compounds were dissolved and diluted to a concentration of 10 mM in 100% DMSO. Compounds were then serially diluted 1:3 in DMSO into 10 point concentration response curves, transferred to daughter plates, and further diluted into assay buffer to a 2× stock. Calcium fluorescence measures were recorded as fold over basal fluorescence; raw data was then normalized to the maximal response to glutamate. Antagonism of the agonist response of the mGlu2 receptor in the present invention was observed as a decrease in response to nearly maximal concentrations of glutamate in the presence of compound compared to the response to glutamate in the absence of compound.
The raw data file containing all time points was used as the data source in the analysis template. This was saved by the FDSS as a tab-delimited text file. Data were normalized using a static ratio function (F/F0) for each measurement of the total 360 values per well divided by each well's initial value. Data were then reduced to peak amplitudes (Max−Initial Min) using a time range that starts approximately 3 seconds prior to the glutamate EC80 addition and continues for approximately 90 seconds. This is sufficient time to capture the peak amplitude of the cellular calcium response. Individual amplitudes were expressed as % ECMax by multiplying each amplitude by 100 and then dividing the product by the mean of the amplitudes derived from the glutamate ECMax-treated wells. IC50 values for test compounds were generated by fitting the normalized values versus the log of the test compound concentration (in mol/L) using a 4 parameter logistic equation where none of the parameters were fixed. Each of the three values collected at each concentration of test compound were weighted evenly.
For NAMs, potency (IC50) and maximum response (% Glu Max), i.e. the amplitude of response in the presence of 30 μM test compound as a percentage of the maximal response to glutamate, are reported. […] Compounds with no measurable activity are designated as “>30,000 nM” since the top concentration of compound tested in the assay is 30 μM.

[1] = amplitude of response in the presence of 30 μM test compound as percentage of maximal response to glutamate

Chain of rat mGlu2 (P31421 19-872): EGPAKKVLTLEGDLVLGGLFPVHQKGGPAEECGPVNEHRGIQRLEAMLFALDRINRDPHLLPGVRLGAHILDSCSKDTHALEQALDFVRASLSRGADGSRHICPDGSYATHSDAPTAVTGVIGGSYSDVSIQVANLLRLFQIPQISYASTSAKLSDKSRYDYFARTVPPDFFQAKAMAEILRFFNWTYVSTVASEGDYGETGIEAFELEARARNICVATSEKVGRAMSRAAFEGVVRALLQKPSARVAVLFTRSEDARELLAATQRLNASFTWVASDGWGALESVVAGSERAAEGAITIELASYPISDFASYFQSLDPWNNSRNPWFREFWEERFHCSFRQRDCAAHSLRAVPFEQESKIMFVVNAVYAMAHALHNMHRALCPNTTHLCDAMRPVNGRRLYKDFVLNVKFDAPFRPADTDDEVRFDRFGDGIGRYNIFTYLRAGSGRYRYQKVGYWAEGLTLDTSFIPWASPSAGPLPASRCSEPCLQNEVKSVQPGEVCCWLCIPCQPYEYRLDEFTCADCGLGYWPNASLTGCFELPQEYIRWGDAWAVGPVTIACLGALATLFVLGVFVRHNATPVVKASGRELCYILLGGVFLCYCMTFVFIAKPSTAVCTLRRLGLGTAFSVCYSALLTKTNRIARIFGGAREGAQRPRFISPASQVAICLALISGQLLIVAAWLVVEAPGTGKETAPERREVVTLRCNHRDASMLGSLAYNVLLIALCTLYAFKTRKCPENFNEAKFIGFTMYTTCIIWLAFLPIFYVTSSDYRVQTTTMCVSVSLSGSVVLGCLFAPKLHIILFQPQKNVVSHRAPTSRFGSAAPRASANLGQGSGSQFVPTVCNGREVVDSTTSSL

Row | IC50 | remaining activity at 30 µM [1] | rat mGlu2 Glu max [1] | SMILES
1 | > 10 µM | 49.6% |  | N#Cc1cc(-c2ccc(F)cc2)c(OCCCN2CCC(F)(F)CC2)cn1 [Compound 74, 5-(3-(4,4-difluoropiperidin-1-yl)propoxy)-4-(4-fluorophenyl)picolinonitrile]
2 | > 10 µM | 33.3% |  | CN(CCOCc1cncc(F)c1)c1cnc(C#N)cc1-c1ccc(F)cc1 [Compound 76, 4-(4-Fluorophenyl)-5-((2-((5-fluoropyridin-3-yl)methoxy)ethyl)(methyl)amino)picolinonitrile]
3 | 4.13 µM | -0.09% |  | Cn1cc(-c2cc(C(N)=O)ncc2OCc2cc(F)cc(F)c2)cn1 [Compound 80, 5-((3,5-difluorobenzyl)oxy)-4-(1-methyl-1H-pyrazol-4-yl)picolinamide]
4 | 1.53 µM | 2.19% |  | NC(=O)c1cc(-c2ccc(F)cc2)c(OCc2cccc(Br)c2F)cn1 [Compound 81, 5-((3-bromo-2-fluorobenzyl)oxy)-4-(4-fluorophenyl)picolinamide]
5 | 0.216 µM | 1% |  | COc1ccc(-c2cc(C(N)=O)ncc2OCc2ccc(C)nc2)c(F)c1 [Compound 83, 4-(2-fluoro-4-methoxyphenyl)-5-((6-methylpyridin-3-yl)methoxy)picolinamide]
6 | > 10 µM | 46.7% |  | Cc1ccc(COc2cnc(C(N)=O)cc2-c2cnn(C)c2)cn1 [Compound 85, 4-(1-methyl-1H-pyrazol-4-yl)-5-((6-methylpyridin-3-yl)methoxy)picolinamide]
7 | 0.44 µM | 1.16% |  | COc1ccc(-c2cc(C(N)=O)ncc2OCc2ccc(C(F)(F)F)nc2)c(F)c1 [Compound 86, 4-(2-fluoro-4-methoxyphenyl)-5-((6-(trifluoromethyl)pyridin-3-yl)methoxy)picolinamide]
8 | 0.029 ± 0.005 µM | 1.65 ± 0.23% |  | COc1ccc(-c2cc(C(N)=O)ncc2OCc2ccnc(C)c2)c(F)c1 [Compound 88, 4-(2-fluoro-4-methoxyphenyl)-5-((2-methylpyridin-4-yl)methoxy)picolinamide]
9 | 0.639 µM | 0.51% |  | NC(=O)c1cc(-c2ccc(F)cc2)c(COc2ccc(C(F)(F)F)nc2)cn1 [Compound 91, 4-(4-fluorophenyl)-5-(((6-(trifluoromethyl)pyridin-3-yl)oxy)methyl)picolinamide]
10 | > 10 µM | 49% |  | NC(=O)c1cc(-c2ccc(F)cc2)c(OCCN2CCOCC2)cn1 [Compound 94, 4-(4-fluorophenyl)-5-(2-morpholinoethoxy)picolinamide]
11 | > 10 µM | 22.8% |  | C[C@@H]1CN(CCOc2cnc(C(N)=O)cc2-c2ccc(F)cc2)C[C@H](C)O1 [Compound 95, 5-(2-((cis)-2,6-dimethylmorpholino)ethoxy)-4-(4-fluorophenyl)picolinamide]

Second part, the compound before the results:

Row | SMILES | IC50 | remaining activity at 30 µM [1] | rat mGlu2 Glu max [1]
12 | C[C@@H]1CN(CCOc2cnc(C#N)cc2-c2ccc(F)cc2)C[C@H](C)O1 [Compound 70, 5-(2-((cis)-2,6-Dimethylmorpholino)ethoxy)-4-(4-fluorophenyl)picolinonitrile] | > 30 µM |  | 
13 | N#Cc1cc(-c2ccc(F)cc2)c(OCCCN2CCOCC2)cn1 [Compound 71, 4-(4-fluorophenyl)-5-(3-morpholinopropoxy)picolinonitrile] | > 30 µM |  | 
14 | CC1CN(CCCOc2cnc(C#N)cc2-c2ccc(F)cc2)CCO1 (stereo not shown) [Compound 72, 4-(4-fluorophenyl)-5-(3-(2-methylmorpholino)propoxy)picolinonitrile] | > 30 µM |  | 
15 | CC1(C)CN(CCCOc2cnc(C#N)cc2-c2ccc(F)cc2)CCO1 [Compound 73, 5-(3-(2,2-dimethylmorpholino)propoxy)-4-(4-fluorophenyl)picolinonitrile] | > 30 µM |  | 
16 | Cc1ncc(OCCOc2cnc(C#N)cc2-c2ccc(F)cc2)cn1 [Compound 75, 4-(4-Fluorophenyl)-5-(2-((2-methylpyrimidin-5-yl)oxy)ethoxy)picolinonitrile] | > 10 µM | 30.2% | 
17 | NC(=O)c1cc(-c2ccc(F)cc2)c(N2CCC(Oc3ccc(C(F)(F)F)nc3)CC2)cn1 [Compound 77, 4-(4-Fluorophenyl)-5-(4-((6-(trifluoromethyl)pyridin-3-yl)oxy)piperidin-1-yl)picolinamide] | > 30 µM | 35.1% | 
18 | CC1(C)CN(Cc2cnc(C(N)=O)cc2-c2ccc(F)cc2)CCO1 [Compound 78, 5-((2,2-dimethylmorpholino)methyl)-4-(4-fluorophenyl)picolinamide] | 0.531 µM | -0.32% | 
19 | C[C@@H]1CN(Cc2cnc(C(N)=O)cc2-c2ccc(F)cc2)C[C@H](C)O1 [Compound 79, 5-(((cis)-2,6-dimethylmorpholino)methyl)-4-(4-fluorophenyl)picolinamide] | 0.987 µM | 0.52% | 
20 | Cn1cc(-c2cc(C(N)=O)ncc2OCc2cccnc2)cn1 [Compound 82, 4-(1-methyl-1H-pyrazol-4-yl)-5-(pyridin-3-ylmethoxy)picolinamide] | > 30 µM |  | 
21 | Cc1ccc(COc2cnc(C(N)=O)cc2-c2ccc(C(F)(F)F)nc2)cn1 [Compound 84, 5′-((6-methylpyridin-3-yl)methoxy)-6-(trifluoromethyl)-[3,4′-bipyridine]-2′-carboxamide] | > 30 µM |  | 
22 | Cn1cc(-c2cc(C(N)=O)ncc2OCc2ccc(C(F)(F)F)nc2)cn1 [Compound 87, 4-(1-methyl-1H-pyrazol-4-y1)-5-((6-(trifluoromethyl)pyridin-3-yl)methoxy)picolinamide] | > 10 µM |  | 29.69%
23 | Cc1cc(COc2cnc(C(N)=O)cc2-c2cnn(C)c2)ccn1 [Compound 89, 4-(1-methyl-1H-pyrazol-4-yl)-5-((2-methylpyridin-4-yl)methoxy)picolinamide] | > 10 µM | 30.7% | 
24 | NC(=O)c1cc(-c2ccc(F)cc2)c(COc2cc(F)cc(F)c2)cn1 [Compound 90, 5-((3,5-difluorophenoxy)methyl)-4-(4-fluorophenyl)picolinamide] | 2.03 µM | 0.21% | 
25 | Cc1ccc(OCc2cnc(C(N)=O)cc2-c2ccc(F)cc2)cn1 [Compound 92, 4-(4-fluorophenyl)-5-(((6-methylpyridin-3-yl)oxy)methyl)picolinamide] | 1.66 µM | -2.16% | 
26 | NC(=O)c1cc(-c2ccc(F)cc2)c(COc2ccnc(C(F)(F)F)c2)cn1 [Compound 93, 4-(4-fluorophenyl)-5-(((2-(trifluoromethyl)pyridin-4-yl)oxy)methyl)picolinamide] | 0.477 µM | 0.38% | 
27 | NC(=O)c1cc(-c2ccc(F)cc2)c(OCCCN2CCC(F)(F)CC2)cn1 [Compound 96, 5-(3-(4,4-difluoropiperidin-1-yl)propoxy)-4-(4-fluorophenyl)picolinamide] | 3.27 µM | 7.38% | 
28 | CC1CN(CCCOc2cnc(C(N)=O)cc2-c2ccc(F)cc2)CCO1 (stereo not shown) [Compound 97, 4-(4-fluorophenyl)-5-(3-(2-methylmorpholino)propoxy)picolinamide] | > 10 µM | 22% | 
29 | CC1(C)CN(CCCOc2cnc(C(N)=O)cc2-c2ccc(F)cc2)CCO1 [Compound 98, 5-(3-(2,2-dimethylmorpholino)propoxy)-4-(4-fluorophenyl)picolinamide] | 3.25 µM | 0.97% | 
